This note sets out measurements from patent US20210220328A1, “PYRROLE DERIVATIVES AS ACC INHIBITORS” (Almirall, S.A., priority 2017, published 2021).

A value given as a limit tells only on which side of the number the result lay.

The test system of this assay is immortalized human sebocyte cell line, SZ95. Nature of the assay: In vitro assay of inhibition of lipid synthesis. The assay is classed as cell-based. Particulars: 48 h, SZ95 sebocytes. Here is the method: In Vitro Assay of Inhibition of Lipid Synthesis
To evaluate the inhibition of lipid synthesis, the immortalized human sebocyte cell line, SZ95 (stablished by Zouboulis, C. C. et al J Invest Dermatol 1999; 113:1011-20), was treated with arachidonic acid (AA) in presence or absence of compound. Lipids were detected by using a lipid sensing fluorophore.
Compounds were dissolved in dimethylsulfoxide (DMSO) 100%. Then the stocks were serial diluted 1/3 in DMSO 100%, and this battery of solutions were diluted 1/10 in culture medium, to minimize the percentage of the DMSO over cells.
10 k cells were plated in 384 well microtiter plates and incubated at 37° C. and 5% CO2 in DMEM/F12 supplemented with 10% FBS, 1.25 ng/ml of rhEGF and GA-1000 before of compound and stimulus addition. After 24 h, compounds dissolved in culture media were added over cells, diluting the solutions prepared 1/40 in the final volume of the assay. Then, cells and compounds were preincubated for 30 min at 37° C. and 5% CO2. After this prior incubation, the lipid synthesis was induced by 75 μM of AA final solution, preparing a solution 10× in culture media. Finally, SZ95 treated were incubated for 48 h at 37° C. and 5% CO2.
Neutral lipids were measured using AdipoRed™, purchased from LONZA. To do that, cells were washed with PBS and incubated with a solution of AdipoRed™ (final dilution 1/80 in PBS) for 30 min at room temperature. After the staining process, the fluorescence intensity (FI) was quantified using a fluorescence plate reader (excitation 485 nm; emission 535).
Activity of compounds were calculated as % of inhibition considering the maximal fluorescence for AA-stimulated cells and the minimum fluorescence for unstimulated cells as controls.

[1] abbreviates: lipid synthesis induced by 75 μM arachidonic acid, AdipoRed fluorescence, Table 1.
Where [2] appears, read: 75 μM arachidonic acid, AdipoRed, Table 2, finer classes for compounds with IC50 less than 250 nM.

With `CCCCCCCCCCCCSc1c[nH]c(C(=O)O)c1F` [Example 76, 4-(Dodecylthio)-3-fluoro-1H-pyrrole-2-carboxylic acid], the IC50 (usually the concentration that inhibits the measured activity by half) under setting [1] lay within 1 to 5 µM. On to `CCCCCCCCCOc1c[nH]c(C(=O)O)c1Cl` [Example 77, 3-chloro-4-(nonyloxy)-1H-pyrrole-2-carboxylic acid], for which the IC50 was 0.05 to 0.1 µM under setting [2] and < 0.25 µM under setting [1]. For `CCCCCCCCCCOc1c[nH]c(C(=O)O)c1Cl` [Example 78, 3-Chloro-4-(decyloxy)-1H-pyrrole-2-carboxylic acid], in that order: < 0.05 µM and < 0.25 µM. On to `CCCCCCCCCCCOc1c[nH]c(C(=O)O)c1Cl` [Example 79, 3-Chloro-4-(undecyloxy)-1H-pyrrole-2-carboxylic acid], for which the IC50 was < 0.05 µM under setting [2] and < 0.25 µM under setting [1]. The corresponding values for `CCCCCCCCCCCCOc1c[nH]c(C(=O)O)c1Cl` [Example 80, 3-Chloro-4-(dodecyloxy)-1H-pyrrole-2-carboxylic acid] are < 0.05 µM and < 0.25 µM. The corresponding values for `CCCCCCCCCCCCOc1c[nH]c(C(=O)OCC(F)(F)F)c1Cl` [Example 81, 2,2,2-Trifluoroethyl 3-chloro-4-(dodecyloxy)-1H-pyrrole-2-carboxylate] are 0.1 to 0.25 µM and < 0.25 µM.

Consider `CCCCCCCCCCCCOc1c[nH]c(C(=O)OCCCCCCCCCO)c1Cl` [Example 82, 9-Hydroxynonyl 3-chloro-4-(dodecyloxy)-1H-pyrrole-2-carboxylate], for which the IC50 is 0.1 to 0.25 µM under setting [2] and < 0.25 µM under setting [1]. Regarding `CCCCCCCCCCCCOc1c[nH]c(C(=O)OCCOCCOCC)c1Cl` [Example 83, 2-(2-Ethoxyethoxy)ethyl 3-chloro-4-(dodecyloxy)-1H-pyrrole-2-carboxylate], under setting [1], the IC50 is 0.25 to 1 µM.

For `CCCCCCCCCCCCOc1c[nH]c(C(=O)OCC(O)CO)c1Cl` (stereo not shown) [Example 84, 2,3-Dihydroxypropyl 3-chloro-4-(dodecyloxy)-1H-pyrrole-2-carboxylate], the IC50 is 0.1 to 0.25 µM under setting [2] and < 0.25 µM under setting [1].

In the case of `CCCCCCCCCCCCOc1c[nH]c(C(=O)OC(C)OC(=O)OC(C)C)c1Cl` (stereo not shown) [Example 85, 1-((Isopropoxycarbonyl)oxy)ethyl 3-chloro-4-(dodecyloxy)-1H-pyrrole-2-carboxylate], the IC50 under setting [2] is < 0.05 µM and the IC50 under setting [1] is < 0.25 µM. Take `CCCCCCCCCCCCOc1c[nH]c(C(=O)OC(C)OC(=O)OCCOCCOCC)c1Cl` (stereo not shown) [Example 86, 4-Oxo-3,5,8,11-tetraoxatridecan-2-yl 3-chloro-4-(dodecyloxy)-1H-pyrrole-2-carboxylate]: the IC50 reads like this: under setting [2], < 0.05 µM; under setting [1], < 0.25 µM.

With `CCCCCCCCCCCCOc1c[nH]c(C(=O)OC(C)OC(=O)OCCCO)c1Cl` (stereo not shown) [Example 87, 1-(((3-Hydroxypropoxy)carbonyl)oxy)ethyl 3-chloro-4-(dodecyloxy)-1H-pyrrole-2-carboxylate], the IC50 by setting is: under setting [2], < 0.05 µM; under setting [1], < 0.25 µM. `CCCCCCCCCCCCOc1c[nH]c(C(=O)OCc2oc(=O)oc2C)c1Cl` [Example 88, (5-Methyl-2-oxo-1,3-dioxol-4-yl)methyl 3-chloro-4-(dodecyloxy)-1H-pyrrole-2-carboxylate]: the IC50 by setting is: under setting [2], < 0.05 µM; under setting [1], < 0.25 µM. For `CCCCCCCCCCCCCOc1c[nH]c(C(=O)O)c1Cl` [Example 89, 3-Chloro-4-(tridecyloxy)-1H-pyrrole-2-carboxylic acid], in that order: < 0.05 µM and < 0.25 µM.

As for `CCCCCCCCCCCCCCOc1c[nH]c(C(=O)O)c1Cl` [Example 90, 3-Chloro-4-(tetradecyloxy)-1H-pyrrole-2-carboxylic acid], the IC50 reads like this: under setting [2], 0.05 to 0.1 µM; under setting [1], < 0.25 µM.

The compound `CCCCCCCCCCCCCCC(=O)c1c[nH]c(C(=O)O)c1F` [Example 91, 3-Fluoro-4-pentadecanoyl-1H-pyrrole-2-carboxylic acid] gave a 50% inhibitory concentration (IC50) under setting [1] of 1 to 5 µM. For `CCOCCCCCCCCCCCCc1c[nH]c(C(=O)O)c1F` [Example 92, 4-(12-Ethoxydodecyl)-3-fluoro-1H-pyrrole-2-carboxylic acid], the 50% inhibitory concentration (IC50) was < 0.05 µM under setting [2] and < 0.25 µM under setting [1]. Regarding `CCCCCCCCCCCC(F)Cc1c[nH]c(C(=O)O)c1F` (stereo not shown) [Example 93, 3-Fluoro-4-(2-fluorotridecyl)-1H-pyrrole-2-carboxylic acid], the half-inhibitory concentration (IC50) is, setting by setting: under setting [2], < 0.05 µM; under setting [1], < 0.25 µM. For `CCCCCCCCCCCC(F)(F)Cc1c[nH]c(C(=O)O)c1F` [Example 94, 4-(2,2-Difluorotridecyl)-3-fluoro-1H-pyrrole-2-carboxylic acid], in that order: 0.1 to 0.25 µM and < 0.25 µM. Regarding `CCCCCCCCCC(C)(C)CCc1c[nH]c(C(=O)O)c1F` [Example 95, 4-(3,3-Dimethyldodecyl)-3-fluoro-1H-pyrrole-2-carboxylic acid], the IC50 under setting [2] was < 0.05 µM and the IC50 under setting [1] is < 0.25 µM. Regarding `CCCCCCCCCCCC(C)(C)COc1c[nH]c(C(=O)O)c1F` [Example 96, 4-((2,2-Dimethyltridecyl)oxy)-3-fluoro-1H-pyrrole-2-carboxylic acid], the IC50 is 0.05 to 0.1 µM under setting [2] and < 0.25 µM under setting [1]. For the compound `CCCCCCCCCCCCC(F)(F)COc1c[nH]c(C(=O)O)c1F` [Example 97, 4-((2,2-Difluorotetradecyl)oxy)-3-fluoro-1H-pyrrole-2-carboxylic acid], the IC50 reads like this: under setting [2], 0.1 to 0.25 µM; under setting [1], < 0.25 µM. Compound `CCCCCCCCCC(F)(F)COc1c[nH]c(C(=O)O)c1F` [Example 98, 4-((2,2-Difluoroundecyl)oxy)-3-fluoro-1H-pyrrole-2-carboxylic acid] had an IC50 under setting [1] of 0.25 to 1 µM. Consider `CCCCCCCCCCCCC(F)COc1c[nH]c(C(=O)O)c1Cl` (stereo not shown) [Example 99, 3-Chloro-4-((2-fluorotetradecyl)oxy)-1H-pyrrole-2-carboxylic acid], for which the IC50 is 0.1 to 0.25 µM under setting [2] and < 0.25 µM under setting [1]. `CCOCCCCCCCCCOc1c[nH]c(C(=O)O)c1Cl` [Example 100, 3-Chloro-4-((9-ethoxynonyl)oxy)-1H-pyrrole-2-carboxylic acid] showed an IC50 under setting [1] of 0.25 to 1 µM.

On to `CCCCCCCCCCCCCc1c[nH]c(C(=O)O)c1C` [Example 101, 3-Methyl-4-tridecyl-1H-pyrrole-2-carboxylic acid], for which the IC50 under setting [1] was in the range of 1 to 5 µM. `CCCCCCCCCCC(C)(C)Cc1c[nH]c(C(=O)O)c1F` [Example 102, 4-(2,2-Dimethyldodecyl)-3-fluoro-1H-pyrrole-2-carboxylic acid]: the IC50 by setting is: under setting [2], < 0.05 µM; under setting [1], < 0.25 µM.

For the compound `CCCCCCCCCCCOc1c[nH]c(C(=O)OCC(F)(F)F)c1F` [Example 103, 2,2,2-Trifluoroethyl 3-fluoro-4-(undecyloxy)-1H-pyrrole-2-carboxylate], the IC50 is < 0.05 µM under setting [2] and < 0.25 µM under setting [1].

Regarding `CCCCCCCCCCCOc1c[nH]c(C(=O)OCCOCCOCC)c1F` [Example 104, 2-(2-Ethoxyethoxy)ethyl 3-fluoro-4-(undecyloxy)-1H-pyrrole-2-carboxylate], the IC50 is 0.1 to 0.25 µM under setting [2] and < 0.25 µM under setting [1].

As to `CCCCCCCCCCCOc1c[nH]c(C(=O)OC(C)OC(=O)OC(C)C)c1F` (stereo not shown) [Example 105, 1-((Isopropoxycarbonyl)oxy)ethyl 3-fluoro-4-(undecyloxy)-1H-pyrrole-2-carboxylate], the IC50 is, setting by setting: under setting [2], < 0.05 µM; under setting [1], < 0.25 µM. The corresponding values for `CCCCCCCCCCCOc1c[nH]c(C(=O)OC(C)OC(=O)OCCOC)c1F` (stereo not shown) [Example 106, 1-(((2-Methoxyethoxy)carbonyl)oxy)ethyl 3-fluoro-4-(undecyloxy)-1H-pyrrole-2-carboxylate] are < 0.05 µM and < 0.25 µM. For `CCCCCCCCCCCOc1c[nH]c(C(=O)OC(C)OC(=O)OCCOCCOCC)c1F` (stereo not shown) [Example 107, 4-Oxo-3,5,8,11-tetraoxatridecan-2-yl 3-fluoro-4-(undecyloxy)-1H-pyrrole-2-carboxylate], in that order: < 0.05 µM and < 0.25 µM. In the case of `CCCCCCCCCCCCCc1c[nH]c(C(=O)OCC(F)(F)F)c1Cl` [Example 108, 2,2,2-Trifluoroethyl 3-chloro-4-tridecyl-1H-pyrrole-2-carboxylate], the IC50 under setting [1] fell in the range of 0.25 to 1 µM.

`CCCCCCCCCCCCCc1c[nH]c(C(=O)OCCOCCOCC)c1Cl` [Example 109, 2-(2-Ethoxyethoxy)ethyl 3-chloro-4-tridecyl-1H-pyrrole-2-carboxylate] yielded an IC50 under setting [1] of 0.25 to 1 µM. On to `CCCCCCCCCCCCCc1c[nH]c(C(=O)OC(C)OC(=O)OC(C)C)c1Cl` (stereo not shown) [Example 110, 1-((Isopropoxycarbonyl)oxy)ethyl 3-chloro-4-tridecyl-1H-pyrrole-2-carboxylate], for which the IC50 is 0.1 to 0.25 µM under setting [2] and < 0.25 µM under setting [1]. `CCCCCCCCCCCCCc1c[nH]c(C(=O)OC(C)OC(=O)OCCOC)c1Cl` (stereo not shown) [Example 111, 1-(((2-methoxyethoxy)carbonyl)oxy)ethyl 3-chloro-4-tridecyl-1H-pyrrole-2-carboxylate]: the IC50 was 0.1 to 0.25 µM under setting [2] and < 0.25 µM under setting [1].
